Earlier results, collected in patent publication US20110244050A1, “PULSED-RELEASE SILDENAFIL COMPOSITION AND METHOD FOR PREPARING SAID COMPOSITION” (SIEGFRIED RHEIN S.A. DE C.V., priority 2008, published 2011).

Experiments:
[1] = in vivo

plasmatic elimination half-life [1]: about 4 hours | solubility in acidic media (acidic media, like in the stomach): adequate | solubility in alkaline media (alkaline media, like that found in the intestine): decreases markedly
SMILES: CCCc1nn(C)c2c(=O)[nH]c(-c3cc(S(=O)(=O)N4CCN(C)CC4)ccc3OCC)nc12 [sildenafil]
